Source: PubChem BioAssay (NCI)
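In this assay, cells in 96-well plates receive the compound at five concentrations for 48 hours. Endpoints are linearly interpolated between the surrounding concentrations. TGI is the concentration that stops growth completely.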

Experiments:
Assay in all cases: NCI-60 cell line screen, 48 h
A549 NSCLC = system: A549 NSCLC
BT-549 breast = system: BT-549 breast
M14 melanoma = system: M14 melanoma
MDA-MB-435 = system: MDA-MB-435
MDA-N = system: MDA-N
NCI-H460 lung = system: NCI-H460 lung
OVCAR-5 ovarian = system: OVCAR-5 ovarian
PC-3 prostate = system: PC-3 prostate
SF-295 CNS = system: SF-295 CNS
SK-MEL-5 melanoma = system: SK-MEL-5 melanoma

| SMILES | TGI (A549 NSCLC) | TGI (BT-549 breast) | TGI (M14 melanoma) | TGI (MDA-MB-435) | TGI (MDA-N) | TGI (NCI-H460 lung) | TGI (OVCAR-5 ovarian) | TGI (PC-3 prostate) | TGI (SF-295 CNS) | TGI (SK-MEL-5 melanoma) |
| --- | --- | --- | --- | --- | --- | --- | --- | --- | --- | --- |
| CO[P@]1(=O)O[C@@H](c2ccccc2)[C@H](O)[C@@]1(O)c1ccccc1 | > 100 µM | > 100 µM | > 100 µM | > 100 µM | > 100 µM | > 100 µM | > 100 µM | > 100 µM | > 100 µM | > 100 µM |
| Cc1cc(S(=O)(=O)O)c(NC(=O)c2oc3cc(O)ccc3c(=O)c2C)cc1Cl | > 100 µM | > 100 µM | > 100 µM | > 100 µM | > 100 µM | > 100 µM | > 100 µM | > 100 µM | > 100 µM | > 100 µM |
| CC1(C)CCC2(C(=O)OC3OC(CO)C(O)C(O)C3O)CCC3(CO)C(=CCC4C5(C)CC(O)C(O)C(C)(C(=O)OC6OC(CO)C(O)C(O)C6O)C5CCC43C)C2C1 (stereo not given) | > 100 µM | > 100 µM | > 100 µM | > 100 µM | > 100 µM | > 100 µM | > 100 µM | > 100 µM | > 100 µM | > 100 µM |
| C=C1CC(Cn2cc(Br)c(=O)[nH]c2=O)(c2ccc(-c3ccccc3)cc2)OC1=O (stereo not given) | 21.6 µM | 3.31 µM | 3.12 µM | 2.36 µM | 2.35 µM | 19.7 µM | 15.6 µM | 3.31 µM | 18.5 µM | 2.55 µM |
| c1ccc([P+](c2ccccc2)(c2ccccc2)c2ccc([P+](c3ccccc3)(c3ccccc3)c3ccccc3)cc2)cc1 | > 100 µM | > 100 µM | > 100 µM | > 100 µM | > 100 µM | > 100 µM | > 100 µM | > 100 µM | > 100 µM | > 100 µM |
| Cc1ccc(S(=O)(=O)N/N=C2\C3CC4CC(C3)C2C4)cc1 (stereo not given) | > 100 µM | > 100 µM | > 100 µM | > 100 µM | > 100 µM | > 100 µM | > 100 µM | > 100 µM | > 100 µM | > 100 µM |
| COc1ccc(C=Nc2ccc(-c3nc4ccccc4[nH]3)cc2)cc1OC | > 100 µM | > 100 µM | > 100 µM | > 100 µM | > 100 µM | > 100 µM | > 100 µM | > 100 µM | > 100 µM | > 100 µM |
| COc1ccc(C(=O)c2ccc(-n3cc(/C=C/[N+](=O)[O-])c4ccccc43)cc2)cc1 | > 100 µM | 33.7 µM | > 74.5 µM | 49.3 µM | > 58.9 µM | > 66.1 µM | > 100 µM | 49.9 µM | > 100 µM | > 61.9 µM |
| CCOC(=O)c1nc2ccccc2nc1NCc1ccc(Cl)cc1Cl | > 100 µM | > 100 µM | > 100 µM | > 100 µM | > 100 µM | > 100 µM | > 100 µM | > 100 µM | > 100 µM | > 100 µM |
| O=C1OI(C#Cc2ccccc2)c2ccccc21 | 39.7 µM | 8.22 µM | > 49.8 µM | 14.1 µM | 30.6 µM | 13.4 µM | > 40.1 µM | 18.3 µM | 28.4 µM | 6.77 µM |
| COC(=O)c1ccc(/C=C2\CCc3ccccc3C2=O)cc1 | > 100 µM | > 100 µM | > 100 µM | > 100 µM | > 100 µM | > 100 µM | > 100 µM | > 100 µM | > 100 µM | > 100 µM |
| C/C(=N\Nc1ccccc1)C(CN(C)C)C(c1ccccc1)c1c(O)c2ccccc2oc1=O (stereo not given) | > 100 µM | > 100 µM | > 100 µM | > 100 µM | > 100 µM | > 100 µM | > 100 µM | > 100 µM | > 100 µM | > 100 µM |
| CC/C(Cl)=N\OC(=O)Nc1ccc(F)cc1F | 39.8 µM | 6.93 µM | 22.3 µM | 34.2 µM | 12.6 µM | 85.8 µM | 35.1 µM | 33.3 µM | > 60 µM | 20.6 µM |
| CC12CC(C/C1=N/O)C(C)(C)C2 (stereo not given) | > 100 µM | > 100 µM | > 100 µM | > 100 µM | > 100 µM | > 100 µM | > 100 µM | > 100 µM | > 100 µM | > 100 µM |
| O=C1C=C(N2CCN(c3ccccn3)CC2)C(=O)c2c(O)ccc(O)c21 | 40.7 µM | > 100 µM | > 48.2 µM | 1.75 µM | 5.76 µM | 38.1 µM | > 46.4 µM | > 56.2 µM | 51.5 µM | 4.5 µM |
| [N-]=[N+]=C(C(=O)C(=[N+]=[N-])C(=O)c1ccccc1)C(=O)c1ccccc1 | > 100 µM | > 100 µM | > 100 µM | > 100 µM | > 100 µM | > 100 µM | > 100 µM | > 100 µM | > 100 µM | > 100 µM |

| SMILES | TGI (A549 NSCLC) | TGI (BT-549 breast) | TGI (M14 melanoma) | TGI (MDA-MB-435) | TGI (MDA-N) | TGI (NCI-H460 lung) | TGI (OVCAR-5 ovarian) | TGI (PC-3 prostate) | TGI (SF-295 CNS) | TGI (SK-MEL-5 melanoma) |
| --- | --- | --- | --- | --- | --- | --- | --- | --- | --- | --- |
| CC(C)(C)c1c(C(C)(C)C)c(=O)c1=O | > 100 µM | > 100 µM | > 100 µM | > 100 µM | > 100 µM | > 100 µM | > 100 µM | > 100 µM | > 100 µM | > 100 µM |
| NC(=O)C1=CC2C3C=CC2(O)C(=O)OC3O1 (stereo not given) | > 100 µM | 17.3 µM | 13.2 µM | 16.5 µM | 6.97 µM | 43.2 µM | > 64.5 µM | 37.7 µM | 27.1 µM | 6.32 µM |
| COC(=O)c1c(OC)cc2cc3c(c(O)c2c1C)C(=O)C1(O)C(=O)C=C(OC)C(OC(=O)CC(C)N)=C1C3=O (stereo not given) | > 100 µM | > 100 µM | > 100 µM | > 100 µM | > 100 µM | > 100 µM | > 100 µM | > 100 µM | > 100 µM | > 100 µM |
| Cc1ccc(/C=C2\CN(C)CC3C2=NC(=S)NC3c2ccc(C)cc2)cc1 (stereo not given) | > 100 µM | > 100 µM | > 100 µM | 45.1 µM | 80.5 µM | > 100 µM | > 100 µM | > 100 µM | > 100 µM | > 100 µM |
| Cc1c2cccc-2ccc2c1[nH]c1ccccc12 | 5.65 µM | 9.56 µM | 3.7 µM | 4.68 µM | 4.15 µM | 3.57 µM | 4.77 µM | 3.45 µM | 5.62 µM | 3.34 µM |
| C=CCOC(=O)CCCCCCCCCCCCCCCOC(=O)C1=C(CCC[C@@H](C)O[Si](C)(C)C(C)(C)C)NC(=O)N2[C@H](CC3(CC/C=C\[C@H](CC)O[Si](C(C)C)(C(C)C)C(C)C)OCCO3)CC[C@H]12 | > 100 µM | > 100 µM | > 100 µM | > 100 µM | > 100 µM | > 100 µM | > 100 µM | > 100 µM | > 100 µM | > 100 µM |
| CC12CC(c3ccccc3O1)C(C(=O)Nc1cccc(F)c1)C(=O)N2 (stereo not given) | > 100 µM | 66.8 µM | > 100 µM | > 100 µM | > 100 µM | > 100 µM | > 100 µM | > 100 µM | > 100 µM | 54.8 µM |
| CCN(CC)CCN(C)CCc1ccc(Br)cc1 | > 100 µM | > 100 µM | 33.1 µM | > 100 µM | > 100 µM | > 100 µM | > 100 µM | > 100 µM | > 100 µM | 33.6 µM |
| CC(C)(C)c1ccc(-c2nnc(-c3cc(C#N)cc(-c4nnc(-c5ccc(C(C)(C)C)cc5)o4)c3)o2)cc1 | > 100 µM | > 100 µM | > 100 µM | > 100 µM | > 100 µM | > 100 µM | > 100 µM | > 100 µM | > 100 µM | > 100 µM |
| CCCNC(=O)CCC(C)[C@H]1CCC2C3C(C[C@H](OC(C)=O)[C@@]21C)[C@@]1(C)CCC2(C[C@H]1C[C@H]3OC(C)=O)OOC1(CCCCC1)OO2 (stereo not given in full) | 2.82 µM | 12.4 µM | > 100 µM | 9.92 µM | 16.6 µM | 6.83 µM | 25.8 µM | 7.08 µM | 39.7 µM | 5.71 µM |
| Cn1c(=O)sc2cc(C(=S)N3CCOCC3)ccc21 | > 100 µM | > 100 µM | > 100 µM | > 100 µM | > 100 µM | > 100 µM | > 100 µM | > 100 µM | > 100 µM | > 100 µM |
| O=[N+]([O-])c1ccc(NS(=O)(=O)C(F)(F)F)cc1 | > 100 µM | > 100 µM | > 100 µM | > 100 µM | > 100 µM | > 100 µM | > 100 µM | > 100 µM | > 100 µM | > 100 µM |
| O=C(/C=C/c1ccco1)c1cccc(C(=O)/C=C/c2ccco2)n1 | > 100 µM | 78.4 µM | > 96.3 µM | > 100 µM | > 100 µM | > 100 µM | > 81.9 µM | > 100 µM | > 100 µM | > 100 µM |
| CCOC(=O)/C(C#N)=C/N(CC)/N=C/c1ccccc1 | > 100 µM | > 100 µM | > 100 µM | > 100 µM | > 100 µM | > 100 µM | > 100 µM | > 100 µM | > 100 µM | > 100 µM |
| COc1ccc(-c2nc(-c3cnccn3)n(C3OC(CO)C(O)C(O)C3O)n2)cc1 (stereo not given) | > 100 µM | > 100 µM | > 100 µM | > 100 µM | > 100 µM | > 100 µM | > 100 µM | > 100 µM | > 100 µM | > 100 µM |
| CCCCCCCCCCCCCCCCOCC(Cl)COP(=O)(O)OP(=O)(O)OCC1OC(n2cnc3c(N)ncnc32)C(O)C1O (stereo not given) | > 100 µM | > 100 µM | > 100 µM | > 100 µM | > 100 µM | > 100 µM | > 100 µM | 96.8 µM | > 100 µM | > 100 µM |
